Columns and labels:
Format in all cases: cell-based
[1] = test system: Wnt activity (Sp5-Luc reporter, SW480 colon carcinoma cells); test: Screening assay for Wnt activity (Sp5-Luc reporter gene assay in SW480 cells); conditions: Homo sapiens; for inhibition at 10 µM: SW480, read-out: percent inhibition at 10 μM; for EC50: Sp5-Luc reporter, SW480 cells, incubated overnight
From the text: The screening assay for Wnt activity is described as follows. Reporter cell lines can be generated by stably transducing cancer cell lines (e.g., colon cancer) or primary cells (e.g., IEC-6 intestinal cells) with a lentiviral construct that includes a Wnt-responsive promoter driving expression of the firefly luciferase gene.
SW480 colon carcinoma cells were transduced with a lentiviral vector expressing luciferase with a human Sp5 promoter consisting of a sequence of eight TCF/LEF binding sites. SW480 cells stably expressing the Sp5-Luc reporter gene and a hygromycin resistance gene were selected by treatment with 150 μg/mL of hygromycin for 7 days. These stably transduced SW480 cells were expanded in cell culture and used for all further screening activities. […] For Sp5-Luc reporter gene assays, the cells were plated at 4,000 cells/well in 384-well plates with medium containing 1% fetal bovine serum and incubated overnight at 37° C. and 5% CO2. Following incubation, 20 μl of BrightGlo luminescence reagent (Promega) was added to each well of the 384-well assay plates. The plates were placed on an orbital shaker for 2 min and then luminescence was quantified using the Envision (Perkin Elmer) plate reader. Readings were normalized to DMSO only treated cells, and normalized activities were utilized for EC50 calculations using the dose-response log (inhibitor) vs. response-variable slope (four parameters) nonlinear regression feature available in GraphPad Prism 5.0 (or Dotmatics).

SW480 colon cancer cells = test: Cell viability assay (CellTiter-Blue); conditions: Homo sapiens; for EC50: 96 h, SW480 cell viability, four days, CellTiter-Blue; for inhibition at 10 µM: SW480, 96 h, read-out: percent inhibition at 10 μM
Protocol: Representative compounds were screened using the following assay procedure to assess the effect on cell viability as described below.
Approximately 2×10^3 SW480 colon cancer cells were seeded into each well and allowed to incubate in the presence or absence of compound for four days at 37° C./5% CO2. Eight replicates of DMSO-treated cells served as controls and cells treated with compound were performed in duplicate.
After incubation, 20 μL of CellTiter-Blue (Promega) was added to each well allowed to incubate for approximately 3 hours. This reagent was a buffered solution which contains resazurin, metabolically active cells were able to reduce rezarurin (blue) into resorufin (pink) which was highly fluorescent. This measured fluorescence was used as a readout for cell viability.

[2] = test system: primary human fibroblasts derived from IPF patients (LL29 cells) treated with TGF-β1; test: Inhibition of the fibrotic process (αSMA staining) in TGF-β1-treated fibroblasts; conditions: Fibroblast, 96 h; for EC50: % αSMA-positive LL29 cells, TGF-β1 20 ng/mL, 4 days; for inhibition at 10 µM: read-out: percent inhibition at 10 μM
Protocol: Representative compounds were screened using primary human fibroblasts (derived from IPF patients) treated with TGF-β1 to determine their ability to inhibit the fibrotic process.
LL29 cells are plated at 1,500 cells/well in 80 μL/well F12 medium supplemented with 1% Fetal Bovine Serum. […] Wells treated with TGF-P1 and containing DMSO were used as controls. […] Following incubation for 4 days, SYTOX green nucleic acid stain (Life Technologies [Thermo Fisher Scientific]) was added to the wells at a final concentration of 1 μM and incubated at room temperature for 30 min.

IL-6 (THP-1 cells) = test: IL-6 inhibition in LPS-stimulated THP-1 cells (HTRF); conditions: Homo sapiens; for EC50: IL6 by HTRF, THP-1 cells, 500 ng/mL LPS, 22 hours; for inhibition at 10 µM: THP-1, read-out: percent inhibition at 10 M
Protocol: THP-1 cells were cultured in basal media with 1% FBS for 24 hours before the start of the assay. […] THP-1 cells were plated at 5000 cells/well in the 384-well plates and incubated at 37° C. for 2 h. 500 ng/mL of LPS was added after 2 hours and cells were incubated for another 22 hours at 37° C. Plates were spun in a centrifuge for 1 minute at […] and a mixture of anti-IL6 XL665, and anti-IL6 Cryptate diluted in reconstitution buffer (Cisbio Inc.) was added to each well. Following incubation for 3 hrs at room temperature, Homogeneous Time-Resolved Fluorescence (HTRF) was measured using the Envision (Perkin Elmer) at 665 nm and […]. The ratio of fluorescence at 665 nm to 620 nm was used as a readout for IL6 quantification. All samples were processed in duplicate. Readings were normalized to DMSO treated cells and normalized activities were utilized for EC50 calculations using the dose-response log (inhibitor) vs. response-variable slope (four parameters) nonlinear regression feature available in GraphPad Prism 5.0 (or Dotmatics).

Row | Compound | inhibition at 10 µM [1] | EC50 [1] | EC50 (SW480 colon cancer cells) | EC50 [2] | inhibition at 10 µM [2] | EC50 (IL-6 (THP-1 cells)) | inhibition at 10 µM (IL-6 (THP-1 cells)) | inhibition at 10 µM (SW480 colon cancer cells)
1 | CN(C)c1cncc(-c2ccc3[nH]nc(-c4cc5c(-c6cccnc6)nccc5[nH]4)c3c2)c1 [Compound 91, N,N-Dimethyl-5-(3-(4-(pyridin-3-yl)-1H-pyrrolo[3,2-c]pyridin-2-yl)-1H-indazol-5-yl)pyridin-3-amine] | 35.7% | > 10000 nM | 8080 nM | > 10000 nM | 46.9% | 331 nM |  | 
2 | Cc1ccncc1-c1ccc2[nH]nc(-c3cc4c(-c5ccc(F)cc5)nccc4[nH]3)c2c1 [Compound 33, 3-(4-(4-Fluorophenyl)-1H-pyrrolo[3,2-c]pyridin-2-yl)-5-(4-methylpyridin-3-yl)-1H-indazole] |  | 3720 nM | 3850 nM | 2000 nM |  | > 10000 nM | 36.8% | 
3 | c1cc(-c2ccc3[nH]nc(-c4cc5c(N6CCCCC6)nccc5[nH]4)c3c2)ccn1 [Compound 186, 3-(4-(Piperidin-1-yl)-1H-pyrrolo[3,2-c]pyridin-2-yl)-5-(pyridin-4-yl)-1H-indazole] |  | 2100 nM | 1020 nM | 832 nM |  | > 10000 nM | 53.9% | 
4 | CS(=O)(=O)NCc1cc(F)cc(-c2nccc3[nH]c(-c4n[nH]c5ccc(-c6cncc(NC(=O)C7CCCC7)c6)cc45)cc23)c1 [Compound 498, N-(5-(3-(4-(3-Fluoro-5-(methylsulfonamidomethyl)phenyl)-1H-pyrrolo[3,2-c]pyridin-2-yl)-1H-indazol-5-yl)pyridin-3-yl)cyclopentanecarboxamide] |  | 741 nM | 1140 nM | 3500 nM |  | 103 nM |  | 
5 | CC(C)(C)CC(=O)Nc1cncc(-c2ccc3[nH]nc(-c4cc5c(-c6ccccc6F)nccc5[nH]4)c3c2)c1 [Compound 72, N-(5-(3-(4-(2-Fluorophenyl)-1H-pyrrolo[3,2-c]pyridin-2-yl)-1H-indazol-5-yl)pyridin-3-yl)-3,3-dimethylbutanamide] |  | 445 nM | > 10000 nM | > 10000 nM | 0% | 489 nM |  | 9.6%
6 | CS(=O)(=O)NCc1cc(F)cc(-c2nccc3[nH]c(-c4n[nH]c5ccc(-c6cncc(OCc7ccccc7)c6)cc45)cc23)c1 [Compound 774, N-(3-(2-(5-(5-(Benzyloxy)pyridin-3-yl)-1H-indazol-3-yl)-1H-pyrrolo[3,2-c]pyridin-4-yl)-5-fluorobenzyl)methanesulfonamide] |  | 1010 nM | 941 nM | 2300 nM |  | > 10000 nM | 42.4% | 
7 | CCCC(=O)Nc1cncc(-c2ccc3[nH]nc(-c4cc5cnccc5[nH]4)c3c2)c1 [Compound 269, N-(5-(3-(1H-Pyrrolo[3,2-c]pyridin-2-yl)-1H-indazol-5-yl)pyridin-3-yl) butyramide] |  | 105 nM | 455 nM | 149 nM |  | 154 nM |  | 
8 | Fc1ccccc1-c1nccc2[nH]c(-c3n[nH]c4ccc(-c5ccccn5)cc34)cc12 [Compound 84, 3-(4-(2-Fluorophenyl)-1H-pyrrolo[3,2-c]pyridin-2-yl)-5-(pyridin-2-yl)-1H-indazole] |  | 1220 nM | 1020 nM | 659 nM |  | 1960 nM |  | 
9 | c1cncc(-c2ccc3[nH]nc(-c4cc5c(-c6ccsc6)nccc5[nH]4)c3c2)c1 [Compound 284, 5-(Pyridin-3-yl)-3-(4-(thiophen-3-yl)-1H-pyrrolo[3,2-c]pyridin-2-yl)-1H-indazole] |  | 1250 nM | 661 nM | 648 nM |  | 1100 nM |  | 
10 | COc1cncc(-c2ccc3[nH]nc(-c4cc5c(-c6ccc(C)s6)nccc5[nH]4)c3c2)c1 [Compound 740, 5-(5-Methoxypyridin-3-yl)-3-(4-(5-methylthiophen-2-yl)-1H-pyrrolo[3,2-c]pyridin-2-yl)-1H-indazole] |  | 1150 nM | 1510 nM | 445 nM |  | 5410 nM |  | 
11 | O=C(Cc1ccccc1)Nc1cncc(-c2ccc3[nH]nc(-c4cc5c(-c6cccc(F)c6)nccc5[nH]4)c3c2)c1 [Compound 10, N-(5-(3-(4-(3-Fluorophenyl)-1H-pyrrolo[3,2-c]pyridin-2-yl)-1H-indazol-5-yl)pyridin-3-yl)-2-phenylacetamide] |  | 875 nM | 1020 nM | 630 nM |  | 660 nM |  | 
12 | Nc1cncc(-c2ccc3[nH]nc(-c4cc5c(N6CCCCC6)nccc5[nH]4)c3c2)n1 [Compound 992, 6-(3-(4-(Piperidin-1-yl)-1H-pyrrolo[3,2-c]pyridin-2-yl)-1H-indazol-5-yl) pyrazin-2-amine] |  | 93 nM | 546 nM | > 10000 nM | 0% | 93 nM |  | 
13 | CS(=O)(=O)NCc1cc(F)cc(-c2nccc3[nH]c(-c4n[nH]c5ccc(-c6cncc(NC(=O)C7CC7)c6)cc45)cc23)c1 [Compound 496, N-(5-(3-(4-(3-Fluoro-5-(methylsulfonamidomethyl)phenyl)-1H-pyrrolo[3,2-c]pyridin-2-yl)-1H-indazol-5-yl)pyridin-3-yl)cyclopropanecarboxamide] |  | 370 nM | 930 nM | 5120 nM |  | 137 nM |  | 
14 | CS(=O)(=O)NCc1cc(F)cc(-c2nccc3[nH]c(-c4n[nH]c5ccc(-c6ccccn6)cc45)cc23)c1 [Compound 504, N-(3-Fluoro-5-(2-(5-(pyridin-2-yl)-1H-indazol-3-yl)-1H-pyrrolo[3,2-c]pyridin-4-yl)benzyl)methanesulfonamide] |  | 3610 nM | 5540 nM | 2130 nM |  | > 10000 nM | 40.6% | 
15 | CC(C)Nc1cncc(-c2ccc3[nH]nc(-c4cc5c(-c6ccc(F)cc6)nccc5[nH]4)c3c2)c1 [Compound 40, 5-(3-(4-(4-Fluorophenyl)-1H-pyrrolo[3,2-c]pyridin-2-yl)-1H-indazol-5-yl)-N-isopropylpyridin-3-amine] |  | 539 nM | 779 nM | 549 nM |  | 545 nM |  | 
16 | CC(C)(C)CC(=O)Nc1cncc(-c2ccc3[nH]nc(-c4cc5c(-c6ccc(F)cc6)nccc5[nH]4)c3c2)c1 [Compound 44, N-(5-(3-(4-(4-Fluorophenyl)-1H-pyrrolo[3,2-c]pyridin-2-yl)-1H-indazol-5-yl)pyridin-3-yl)-3,3-dimethylbutanamide] | 19.5% | > 10000 nM | > 10000 nM | > 10000 nM | 0% | > 10000 nM | 35% | 7.7%
17 | Cn1cc(-c2ccc3[nH]nc(-c4cc5c(-c6cccnc6)nccc5[nH]4)c3c2)cn1 [Compound 556, 5-(1-Methyl-1H-pyrazol-4-yl)-3-(4-(pyridin-3-yl)-1H-pyrrolo[3,2-c]pyridin-2-yl)-1H-indazole] |  | 59 nM | 448 nM | 29 nM |  | 90 nM |  | 
18 | Fc1cccc(-c2nccc3[nH]c(-c4n[nH]c5ccc(-c6ccncc6)cc45)cc23)c1 [Compound 18, 3-(4-(3-Fluorophenyl)-1H-pyrrolo[3,2-c]pyridin-2-yl)-5-(pyridin-4-yl)-1H-indazole] | 58.3% | > 10000 nM | 1860 nM | 4350 nM |  | > 10000 nM | 8.4% | 
